Source: patent US20110105380A1, “Protection of Nano-Scale Particles from Immune Cell Uptake” (THE TRUSTEES OF THE UNIVERSITY OF PENNSYLVANIA, priority 2009, published 2011)

Key:
[1] = test system: non-muscle myosin IIA at the phagocytic synapse of THP-1 macrophages; assay: Protein localization to the phagocytic synapse (immunofluorescence); assay type: cell-based, human; details: blebbistatin 50 μM, 10 min pre-incubation
Description: FIG. 4, comprising FIGS. 4A-4B, illustrates CD47 inhibiting myosin localization as similar to blebbistatin. Phagocytic synapses of THP-1 macrophages with IgG-opsonized sheep- or human-RBC (37° C., 10 min) after pre-incubation with blebbistatin (50 μM, 10 min). DMSO was used as a control. FIG. 4A depicts cells fixed and immunostained for non-muscle myosin IIA, F-actin, and Paxillin-Y^118. The scale bars are […]. FIG. 4B depicts quantitation of protein localization to the phagocytic synapse relative to the cytoplasmic intensity set at 1.0 (n=5 cells, ±SD). For cytoskeletal involvement at the phagocytic synapse, streptavidin beads opsonized with rabbit anti-streptavidin FITC. Opsonized beads of different sizes were added to THP-1 cells, PMA treated and immediately placed at 4° C. for 10 min to synchronize phagocytosis. […] For studies involving blebbistatin (EMD Biosciences), macrophages were treated for 10 min at 4° C. prior to temperature increase to 37° C. or for 45 min and 37° C. Macrophages treated with DMSO were used to verify no solvent effects. Immunostaining was performed by permeabilization with 0.1% Triton X-100 in PBS for 20 min before blocking for 1 h with 5% BSA in PBS. Staining with primary antibodies was carried out for 1 h at room temperature in PBS. […] Samples were analyzed by differential interference contrast (DIC) and fluorescence microscopy. […]

THP-1 macrophages = assay: Phagocytosis of IgG-opsonized sheep RBCs by THP-1 macrophages; assay type: cell-based, human
Description: FIG. 5, comprising FIGS. 5A-5D, illustrates human macrophages and monocytes inhibited by human-CD47. FIG. 5A depicts DIC images of THP-1 phagocytes plus CD47-blocked, IgG-opsonized human-RBC, using F(ab′)2 made from monoclonal B6H12. The scale bars are […]. FIG. 5B depicts human peripheral blood monocyte plus CD47-blocked human-RBC following lysis after 45 min of phagocytosis: PKH26 labeled human RBC are depicted in the right hand panel: Lysed RBC labeled with FITC-anti-Fc indicates the cell is not internalized. Human-RBC and Sheep-RBC were phagocytosed by THP-1 cells in FIG. 5C, or human monocytes in FIG. 5D, depicting phagocytosis increases with opsonization. Inset depicts blebbistatin treatment of ShRBC showing decrease in phagocytosis. Phagocytosis is measured as the ratio of internalized RBCs per phagocyte with 200 phagocytes counted in triplicate experiments (±SEM).
FIG. 7 illustrates that myosin increases the efficiency of phagocytosis. Phagocytosis of IgG-opsonized sheep-RBC were measured as a ratio of internalized RBCs per phagocyte with 200 phagocytes counted in triplicate experiments (±SEM). The level of NMM IIA activity is normalized to WT levels in THP-1, with relative levels of knockdown or overexpression quantified by immunofluorescence and Western blot. Results for phagocytosis of the IgG-opsonized sheep-RBC were fit to a line; where the intercept approximates the result for human-RBC. The inset bar graph depicts blebbistatin inhibition of ShRBC phagocytosis by GFP-NMMIIA expressing WT THP-1.
Phagocytosis by the human-derived THP-1 macrophages of IgG-opsonized RBCs was studied by imaging in DIC microscopy. […] RBC membranes were prelabeled with PKH26, and non-engulfed RBCs were labeled with a fluorescein-labeled antibody against the Fc of the IgG-opsonin. […] A small number of human RBCs were engulfed for either type of phagocyte. […]
In light of the myosin differences seen by fluorescence at the various synapses (FIGS. 2-4), the effect of blebbistatin-inhibited myosin on phagocytosis was studied. […]

Ki (THP-1 macrophages; engulfment of sheep RBCs by THP-1 macrophages, dose-response (not shown), read-out: Ki-blebb for blebbistatin inhibition of phagocytosis): 5 µM
SMILES: Cc1ccc2c(c1)C(=O)C1(O)CCN(c3ccccc3)C1=N2 (stereo not shown) [blebbistatin]
enrichment of NMM IIA at synaptic contacts with sheep RBC targets [1]: inhibited enrichment of NMM IIA
inhibition of ShRBC phagocytosis by GFP-NMM IIA expressing THP-1 (THP-1 macrophages; 5 μM blebbistatin): ~50%
engulfment of sheep RBCs by THP-1 macrophages (THP-1 macrophages; blebbistatin treatment, FIG. 5C): inhibited by blebbistatin to an extent similar to that of CD47 on human RBCs
